Source: ChEMBL document CHEMBL4265997, “Decision Making in Medicinal Chemistry: The Power of Our Intuition” (ACS Med Chem Lett, 2018)

Target: Estrogen receptor beta (Homo sapiens, UniProt Q92731)
Test: Antagonist activity at ER-beta (unknown origin)

Estrogen receptor beta, sequence (Q92731 whole entry): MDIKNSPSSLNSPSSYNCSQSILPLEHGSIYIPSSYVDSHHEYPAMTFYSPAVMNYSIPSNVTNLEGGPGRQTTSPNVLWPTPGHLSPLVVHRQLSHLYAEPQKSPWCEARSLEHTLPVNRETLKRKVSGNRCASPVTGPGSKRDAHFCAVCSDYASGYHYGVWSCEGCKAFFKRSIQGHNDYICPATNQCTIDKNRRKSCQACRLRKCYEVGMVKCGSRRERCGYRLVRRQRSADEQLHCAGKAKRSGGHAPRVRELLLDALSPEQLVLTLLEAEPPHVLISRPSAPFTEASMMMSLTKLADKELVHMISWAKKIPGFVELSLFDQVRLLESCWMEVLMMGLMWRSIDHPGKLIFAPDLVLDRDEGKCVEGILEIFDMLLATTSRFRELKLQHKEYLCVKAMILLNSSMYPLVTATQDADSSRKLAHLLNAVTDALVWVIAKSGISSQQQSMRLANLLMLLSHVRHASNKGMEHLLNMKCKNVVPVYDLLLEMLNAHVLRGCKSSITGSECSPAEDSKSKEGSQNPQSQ

IC50 [nM]	Structure (SMILES)
0.631	CNC(=O)c1ccc2nc(C)c3nnc(-c4cc(OCC(C)C)ccc4Cl)n3c2c1
2.51	CNC(=O)c1ccc2nc(C)c3nnc(-c4ccccc4Cl)n3c2c1
